Values of other authors in patent US11298325B2, “Pharmaceutical compositions of pimobendan” (Boehringer Ingelheim Vetmedica GmbH, priority 2013, dated 2022).

Columns and labels:
[1] = pH 5
[2] = low solubility and low permeability

Solubility in water [1]: about 1 mg/liter
Class in the Biopharmaceutics Classification Systems [2]: Class IV
SMILES: COc1ccc(-c2nc3ccc(C4=NNC(=O)CC4C)cc3[nH]2)cc1 (centres unmarked) [pimobendan]
